Experimental data reported in patent US11896561B2, “Compositions including a cannabinoid and protocatechuic acid” (priority 2021, dated 2024).
Converted amounts (≈) assume the structure as drawn. “Also recorded” adds a separate entry of the source.

Experiments:
[1] = CBD solubility testing in liquid vehicles; type: physicochemical
Text: The liquid vehicles used are considered G.R.A.S. by FDA; distilled water, deionized water, propylene glycol and 70% isopropyl alcohol. The test containers were 125-milliliter graduated and measured sterile plastic from Wheaton company. A thermometer probe was used to assess the temperatures.
Testing was done to determine the independent solubility of each reagent in the various vehicles. This was followed by testing the potential concentrations of each when combined. The testing started with an arbitrary solution concentration, one that could be altered for percentage of solubility.

[2] = Testing of smear on glass slide (crystals deployed); type: physicochemical
Text: An additional method was employed to replicate the clinical topical application. A smear of the various concentrations was made on the glass histology blank slide to show the amount of crystals deployed for the various concentrations.

[3] = humans; cited from earlier work
[4] = cited from earlier work
[5] = cited from earlier work; remark: listed apart in the source
MRSA and Pseudomonas = details: cited from earlier work
[6] = compared with vitamin E; cited from earlier work

C=C(C)[C@@H]1CCC(C)=C[C@H]1c1c(O)cc(CCCCC)cc1O [CBD, Cannabidiol]
heating necessary for dissolving ([1]; 0.247 (0.247%) in 100 ml distilled water): 120 degrees Fahrenheit
solution outcome upon cooling ([1]; 0.247 (0.247%) in 100 ml distilled water, heated to 120 degrees Fahrenheit then cooled): went out of solution
time remained in solution ([1]; 0.517 (0.5 grams) in 50 ml deionized water, preheated): at least 48 hours
heating necessary for dissolving ([1]; 1.0 gram (1%) in 100 ml distilled water): 120 degrees Fahrenheit
solution outcome upon cooling ([1]; 1.0 gram (1%) in 100 ml distilled water, heated to 120 degrees Fahrenheit then cooled): went out of solution
time remained in solution ([1]; 1 gram (1%) in 100 ml propylene glycol, preliminary heating to 120 Fahrenheit, after cooling): > 48 h
time soluble ([1]; 1.02 gram in 100 ml isopropyl alcohol): more than 48 hours
temperature at which it went into solution ([1]; 1.025 grams in 50 ml deionized water): 120 Fahrenheit
solution outcome ([1]; 1.025 grams in 50 ml deionized water (2.05%), after cooling): came out of solution
solution outcome upon cooling ([1]; 2% in 100 ml propylene glycol, heated then cooled): came out of solution
solution outcome ([1]; 2 grams (4%) in 50 ml propylene glycol, with heating): did not go into solution even with heating; also recorded: not dissolved even on heating
time remained soluble ([1]; 3 grams in 100 ml 70% isopropyl alcohol): more than 48 hours
temperature required to dissolve ([1]; 40 milligrams of CBD in distilled water): 140 degrees Fahrenheit
effect of heating in solution ([1]; heated past 100 Fahrenheit): forms a tan “glue” like material
effect of heating alone and/or in combination ([1]; heating above 90 Fahrenheit): tan ‘glue’ or sticky material
crystals on glass slide smear ([2]; 1% concentrations): very sparse crystals
crystals on glass slide smear ([2]; concentrations of 2 and 3%): abundant crystals
oral bioavailability [3]: approximately 6%
elimination half-life ([4]; in vivo): 18 to 32 h
solubility in DMSO ([5]; DMSO purged with an inert gas): ~60 mg/mL (≈ 191 mM)
solubility in alcohol / isopropyl alcohol ([5]; alcohol, at the original time of extraction, by the literature): up to 90%
solubility in dimethyl formamide ([5]; dimethyl formamide purged with an inert gas): ~50 mg/mL (≈ 159 mM)
solubility in ethanol ([5]; ethanol purged with an inert gas): approximately 35 mg/ml
solubility in methanol ([5]; methanol purged with an inert gas): ~30 mg/mL (≈ 95.4 mM)

O=C(O)c1ccc(O)c(O)c1 [PCA, Protocatechuic acid]
crystals on glass slide smear ([2]; concentrations of 2 and 3%): abundant crystals
life (duration in the body) ([4]; in vivo): 8 h
oral availability ([4]; oral, in 30 minutes): 100%
peak ([4]; time of peak in the body): 2 min
time to heal the wound (MRSA and Pseudomonas; topical 25 uM PCA, mammalian skin wound): 2 days
topical dose sufficient for controlling skin wound infection (MRSA and Pseudomonas; topical, mammalian skin wound of MRSA and Pseudomonas): 25 µM
antioxidant power relative to vitamin E [6]: 10 times
